# From ChEMBL document CHEMBL1955806, “Design, synthesis, single-crystal and preliminary antitumor activity of novel arenesulfonylimidazolidin-2-ones” (2012)
# Assays:
# Type in all cases: functional
# OVCAR-5 = test: Growth inhibition of human OVCAR5 cells at 10 uM after 48 hrs by sulforhodamine B assay; settings: OVCAR-5, 48 h, read-out: GI
# Hs-578T = test: Growth inhibition of human Hs578T cells at 10 uM after 48 hrs by sulforhodamine B assay; settings: read-out: GI
# RPMI-8226 = test: Growth inhibition of human RPMI8226 cells at 10 uM after 48 hrs by sulforhodamine B assay; settings: RPMI-8226, 48 h, read-out: GI
# SF-295 = test: Growth inhibition of human SF295 cells at 10 uM after 48 hrs by sulforhodamine B assay; settings: SF-295, 48 h, read-out: GI
# SNB-19 = test: Growth inhibition of human SNB19 cells at 10 uM after 48 hrs by sulforhodamine B assay; settings: SNB-19, 48 h, read-out: GI
# SN12C = test: Growth inhibition of human SN12C cells at 10 uM after 48 hrs by sulforhodamine B assay; settings: read-out: GI
# PC-3 = test: Growth inhibition of human PC3 cells at 10 uM after 48 hrs by sulforhodamine B assay; settings: PC-3, 48 h, read-out: GI
# SK-MEL-2 = test: Growth inhibition of human SK-MEL-2 cells at 10 uM after 48 hrs by sulforhodamine B assay; settings: SK-MEL-2, 48 h, read-out: GI
# NCI-H460 = test: Growth inhibition of human NCI-H460 cells at 10 uM after 48 hrs by sulforhodamine B assay; settings: NCI-H460, 48 h, read-out: GI
# A549 = test: Growth inhibition of human A549/ATCC cells at 10 uM after 48 hrs by sulforhodamine B assay; settings: A549, 48 h, read-out: GI
# SK-MEL-5 = test: Growth inhibition of human SK-MEL-5 cells at 10 uM after 48 hrs by sulforhodamine B assay; settings: SK-MEL-5, 48 h, read-out: GI
# HOP-92 = test: Growth inhibition of human HOP92 cells at 10 uM after 48 hrs by sulforhodamine B assay; settings: HOP-92, 48 h, read-out: GI
# Malme-3M = test: Growth inhibition of human MALME-3M cells at 10 uM after 48 hrs by sulforhodamine B assay; settings: read-out: GI
# HCT-116 = test: Growth inhibition of human HCT116 cells at 10 uM after 48 hrs by sulforhodamine B assay; settings: HCT-116, 48 h, read-out: GI
# OVCAR-8 = test: Growth inhibition of human OVCAR8 cells at 10 uM after 48 hrs by sulforhodamine B assay; settings: OVCAR-8, 48 h, read-out: GI
# LOX IMVI = test: Growth inhibition of human LOXIMVI cells at 10 uM after 48 hrs by sulforhodamine B assay; settings: read-out: GI
# NCI-H522 = test: Growth inhibition of human NCI-H522 cells at 10 uM after 48 hrs by sulforhodamine B assay; settings: NCI-H522, 48 h, read-out: GI
# 786-0 = test: Growth inhibition of human 786-0 cells at 10 uM after 48 hrs by sulforhodamine B assay; settings: 786-0, 48 h, read-out: GI
# A498 = test: Growth inhibition of human A498 cells at 10 uM after 48 hrs by sulforhodamine B assay; settings: A498, 48 h, read-out: GI
# UACC-257 = test: Growth inhibition of human UACC257 cells at 10 uM after 48 hrs by sulforhodamine B assay; settings: UACC-257, 48 h, read-out: GI
# RXF 393 = test: Growth inhibition of human RXF393 cells at 10 uM after 48 hrs by sulforhodamine B assay; settings: RXF 393, 48 h, read-out: GI
# NCI-H322M = test: Growth inhibition of human NCI-H322M cells at 10 uM after 48 hrs by sulforhodamine B assay; settings: read-out: GI
# DU-145 = test: Growth inhibition of human DU145 cells at 10 uM after 48 hrs by sulforhodamine B assay; settings: DU-145, 48 h, read-out: GI
# T47D = test: Growth inhibition of human T47D cells at 10 uM after 48 hrs by sulforhodamine B assay; settings: read-out: GI
# K562 = test: Growth inhibition of human K562 cells at 10 uM after 48 hrs by sulforhodamine B assay; settings: K562, 48 h, read-out: GI
# IGROV-1 = test: Growth inhibition of human IGROV1 cells at 10 uM after 48 hrs by sulforhodamine B assay; settings: IGROV-1, 48 h, read-out: GI
# MDA-MB-468 = test: Growth inhibition of human MDA-MB-468 cells at 10 uM after 48 hrs by sulforhodamine B assay; settings: MDA-MB-468, 48 h, read-out: GI
# HCC 2998 = test: Growth inhibition of human HCC2998 cells at 10 uM after 48 hrs by sulforhodamine B assay; settings: HCC 2998, 48 h, read-out: GI
# MOLT-4 = test: Growth inhibition of human MOLT4 cells at 10 uM after 48 hrs by sulforhodamine B assay; settings: MOLT-4, 48 h, read-out: GI
# HL-60(TB) = test: Growth inhibition of human HL-60(TB) cells at 10 uM after 48 hrs by sulforhodamine B assay; settings: HL-60, 48 h, read-out: GI
# SR = test: Growth inhibition of human SR cells at 10 uM after 48 hrs by sulforhodamine B assay; settings: read-out: GI
# MDA-MB-231 = test: Growth inhibition of human MDA-MB-231/ATCC cells at 10 uM after 48 hrs by sulforhodamine B assay; settings: MDA-MB-231, 48 h, read-out: GI
# UO-31 = test: Growth inhibition of human UO31 cells at 10 uM after 48 hrs by sulforhodamine B assay; settings: UO-31, 48 h, read-out: GI
# OVCAR-3 = test: Growth inhibition of human OVCAR3 cells at 10 uM after 48 hrs by sulforhodamine B assay; settings: OVCAR-3, 48 h, read-out: GI
# NCI-H226 = test: Growth inhibition of human NCI-H226 cells at 10 uM after 48 hrs by sulforhodamine B assay; settings: NCI-H226, 48 h, read-out: GI
# HCT-15 = test: Growth inhibition of human HCT15 cells at 10 uM after 48 hrs by sulforhodamine B assay; settings: HCT-15, 48 h, read-out: GI
# HT-29 = test: Growth inhibition of human HT-29 cells at 10 uM after 48 hrs by sulforhodamine B assay; settings: HT-29, 48 h, read-out: GI
# SNB-75 = test: Growth inhibition of human SNB75 cells at 10 uM after 48 hrs by sulforhodamine B assay; settings: SNB-75, 48 h, read-out: GI
# MCF7 = test: Growth inhibition of human MCF7 cells at 10 uM after 48 hrs by sulforhodamine B assay; settings: MCF7, 48 h, read-out: GI
# NCI/ADR-RES = test: Growth inhibition of human NCI/ADR-RES cells at 10 uM after 48 hrs by sulforhodamine B assay; settings: read-out: GI
structure (smiles),measurement,setting,value
CO[C@@H]1[C@@H](OC)N(S(=O)(=O)c2ccc(Cl)cc2)C(=O)N1S(=O)(=O)c1ccc(Cl)cc1 (relative stereo),inhibition of growth at 10 µM,OVCAR-5,8.25%
same,inhibition of growth at 10 µM,Hs-578T,-4.94%
same,inhibition of growth at 10 µM,RPMI-8226,21.9%
same,inhibition of growth at 10 µM,SF-295,34%
same,inhibition of growth at 10 µM,SNB-19,2.72%
same,inhibition of growth at 10 µM,SN12C,14.4%
same,inhibition of growth at 10 µM,PC-3,29.8%
same,inhibition of growth at 10 µM,SK-MEL-2,13.1%
same,inhibition of growth at 10 µM,NCI-H460,-1.36%
same,inhibition of growth at 10 µM,A549,21.7%
same,inhibition of growth at 10 µM,SK-MEL-5,-2.95%
same,inhibition of growth at 10 µM,HOP-92,49.9%
same,inhibition of growth at 10 µM,Malme-3M,6.65%
same,inhibition of growth at 10 µM,HCT-116,33.1%
same,inhibition of growth at 10 µM,OVCAR-8,9.39%
same,inhibition of growth at 10 µM,LOX IMVI,5.58%
same,inhibition of growth at 10 µM,NCI-H522,26.7%
same,inhibition of growth at 10 µM,786-0,16.8%
same,inhibition of growth at 10 µM,A498,4.59%
same,inhibition of growth at 10 µM,UACC-257,-11.6%
same,inhibition of growth at 10 µM,RXF 393,-11.5%
same,inhibition of growth at 10 µM,NCI-H322M,14.7%
same,inhibition of growth at 10 µM,DU-145,-9.28%
same,inhibition of growth at 10 µM,T47D,9.2%
same,inhibition of growth at 10 µM,K562,23.2%
same,inhibition of growth at 10 µM,IGROV-1,23.1%
same,inhibition of growth at 10 µM,MDA-MB-468,6.61%
same,inhibition of growth at 10 µM,HCC 2998,5.43%
same,inhibition of growth at 10 µM,MOLT-4,43.5%
same,inhibition of growth at 10 µM,HL-60(TB),3.82%
same,inhibition of growth at 10 µM,SR,34.7%
same,inhibition of growth at 10 µM,MDA-MB-231,23.4%
same,inhibition of growth at 10 µM,UO-31,39.4%
same,inhibition of growth at 10 µM,OVCAR-3,-4.48%
same,inhibition of growth at 10 µM,NCI-H226,4.24%
same,inhibition of growth at 10 µM,HCT-15,19.8%
same,inhibition of growth at 10 µM,HT-29,16%
same,inhibition of growth at 10 µM,SNB-75,19.7%
same,inhibition of growth at 10 µM,MCF7,16%
same,inhibition of growth at 10 µM,NCI/ADR-RES,13.8%
